Experimental data as given in publication PMC6110851, “An Optimized MicroPET Imaging Method for the Distribution and Synergies of Natural Products” (Frontiers in Pharmacology, 2018).

Experiments:
[1] = MicroPET biodistribution of [^18F]-GA in mice; format: in vivo; settings: for time to peak in organ: after injection
Description: The mice were grouped by weight and housed in cages of the climate control room (25°C), with a photoperiod 12:12-h. During feeding, mice were free to access food and water. Mice were fasted for 24 h before the experiment. The mice were anesthetized with 4% isoflurane while preparing for scanning ([Constantinescu et al., 2013b]; [Cui et al., 2017]). Eighteen healthy male Kunming mice, weighing 20 ± 2 g, were divided into three groups, which were control group, once-administered (OA) group and long-term administration (LA) group. In the OA group, 1 h before the administration of [^18F]-GA, the mice were orally treated with PG polysaccharides. In the LA group, the mice were orally given the PG polysaccharides for 7 days, but not before the administration of [^18F]-GA.
Rice received a tail vein injection (8.67 ± 2.14 MBq/μg) of [^18F]-GA and placed in the scanner bed and mouse-imaging room immediately ([Constantinescu et al., 2013b]; [O’Doherty et al., 2017]). Firstly, 2 h PET scanning was performed using an Inveon-dedicated PET scanner. The average delay between injection and starting of PET scanning was 3.5 min. Rice were maintained stable under 4% isoflurane anesthesia throughout scanning. The PET list-mode data were dynamically classified into 23 3D sinograms of span and three ring difference. After Fourier recombination, the data were reconstructed using a 2D ordered-subset expectation maximization algorithm. Random events were excluded before reconstruction. The response of detector is normalized using a component-based approach. All dynamic images were corrected for radioactive decay automatically. The PET images were reconstructed by a cone beam algorithm into 480 × 480 × 632 image arrays. After the reconstruction, images were spatially transformed to match the PET images ([Constantinescu et al., 2013a],[b]).
The reconstruction of the image was performed using the PMOD software (PMOD Technologies). The 3D volumes of interest (VOIs) were drawn manually of the following organs: brain, heart, liver, lungs, kidneys, cortical bone, and gallbladder. The organs were carefully identified and VOIs were drawn as irregular contours on high-resolution PET images obtained from each mouse ([Constantinescu et al., 2013b]; [Garg et al., 2017]). The size of each VOI was less than the actual size of each organ to minimize the effects of PET on adjacent organ spills. The VOIs drawing was verified by a second operator. The VOIs of cortical bone were generated by first using PET image to depict the entire femur bone ([Constantinescu et al., 2013b]). The VOI was transferred to a dynamic PET image and the mean time-activity curve (TAC) of the decay correction was extracted for each target organ ([Constantinescu et al., 2013b]).

[2] = Safety evaluation during the MicroPET experiment (vital signs, electrocardiograms); format: in vivo, mice
[3] = mice, tail vein injection, Time(s) 60
[4] = mice, tail vein injection, Time(s) 180
[5] = mice, tail vein injection, Time(s) 300
[6] = mice, tail vein injection, Time(s) 420
[7] = mice, tail vein injection, Time(s) 660
[8] = mice, tail vein injection, Time(s) 780
[9] = mice, tail vein injection, Time(s) 900
[10] = mice, tail vein injection, Time(s) 1020
[11] = mice, tail vein injection, Time(s) 1140
[12] = mice, tail vein injection, Time(s) 1350
[13] = mice, tail vein injection, Time(s) 1650
[14] = mice, tail vein injection, Time(s) 1950
[15] = mice, tail vein injection, Time(s) 2250
[16] = mice, tail vein injection, Time(s) 2700
[17] = mice, tail vein injection, Time(s) 3300
[18] = mice, tail vein injection, Time(s) 3900
[19] = mice, tail vein injection, Time(s) 4500
[20] = mice, tail vein injection, Time(s) 5100
[21] = mice, tail vein injection, Time(s) 5700
[22] = mice, tail vein injection, Time(s) 6300
[23] = mice, tail vein injection, Time(s) 6900

Compound: CC1(C)[C@@H](O)CC[C@]2(C)[C@H]3C(=O)C=C4[C@@H]5C[C@@](C)(C(=O)NCCCC[18F])CC[C@]5(C)CC[C@@]4(C)[C@]3(C)CC[C@@H]12 [[^18F]-GA, [^18F]-Glycyrrhetinic acid]
- organ of highest uptake ([1]; all mice): highest uptake was found in the liver
- time to peak in organ ([1]; gallbladder, mice, maintained on the peak): 30 min
- time to peak in organ ([1]; heart, lung, and kidney, mice): immediately reached a peak
- time to peak in organ ([1]; liver, mice): 7 min
- brain concentrations ([1]; mice, MicroPET 3-130 min): consistently low
- route of excretion of radioactivity ([1]; mice, radiotracer found in the gallbladder): excreted via the biliary
- Organs (%ID/g) Brain [1, 3]: 1.19 %ID/g
- Organs (%ID/g) Gallbladder [1, 3]: 11.19 %ID/g
- Organs (%ID/g) Heart [1, 3]: 12.13 %ID/g
- Organs (%ID/g) Kidney [1, 3]: 9.67 %ID/g
- Organs (%ID/g) Liver [1, 3]: 13.03 %ID/g
- Organs (%ID/g) Brain [1, 4]: 0.79 %ID/g
- Organs (%ID/g) Gallbladder [1, 4]: 14.59 %ID/g
- Organs (%ID/g) Heart [1, 4]: 6.52 %ID/g
- Organs (%ID/g) Kidney [1, 4]: 8.98 %ID/g
- Organs (%ID/g) Liver [1, 4]: 17.00 %ID/g
- Organs (%ID/g) Brain [1, 5]: 0.73 %ID/g
- Organs (%ID/g) Gallbladder [1, 5]: 19.88 %ID/g
- Organs (%ID/g) Heart [1, 5]: 4.75 %ID/g
- Organs (%ID/g) Kidney [1, 5]: 7.13 %ID/g
- Organs (%ID/g) Liver [1, 5]: 16.13 %ID/g
- Organs (%ID/g) Heart [1, 6]: 4.07 %ID/g
- Organs (%ID/g) Kidney [1, 6]: 6.26 %ID/g
- Organs (%ID/g) Liver [1, 6]: 14.94 %ID/g
- Organs (%ID/g) Brain [1, 7]: 0.58 %ID/g
- Organs (%ID/g) Gallbladder [1, 7]: 26.93 %ID/g
- Organs (%ID/g) Heart [1, 7]: 3.50 %ID/g
- Organs (%ID/g) Kidney [1, 7]: 5.00 %ID/g
- Organs (%ID/g) Liver [1, 7]: 12.33 %ID/g
- Organs (%ID/g) Lung [1, 7]: 2.45 %ID/g
- Organs (%ID/g) Brain [1, 8]: 0.61 %ID/g
- Organs (%ID/g) Gallbladder [1, 8]: 29.01 %ID/g
- Organs (%ID/g) Heart [1, 8]: 3.33 %ID/g
- Organs (%ID/g) Kidney [1, 8]: 4.73 %ID/g
- Organs (%ID/g) Liver [1, 8]: 11.32 %ID/g
- Organs (%ID/g) Brain [1, 9]: 0.54 %ID/g
- Organs (%ID/g) Gallbladder [1, 9]: 30.51 %ID/g
- Organs (%ID/g) Kidney [1, 9]: 4.52 %ID/g
- Organs (%ID/g) Liver [1, 9]: 10.43 %ID/g
- Organs (%ID/g) Brain [1, 10]: 0.56 %ID/g
- Organs (%ID/g) Gallbladder [1, 10]: 33.20 %ID/g
- Organs (%ID/g) Heart [1, 10]: 3.03 %ID/g
- Organs (%ID/g) Kidney [1, 10]: 4.23 %ID/g
- Organs (%ID/g) Liver [1, 10]: 9.66 %ID/g
- Organs (%ID/g) Brain [1, 11]: 0.52 %ID/g
- Organs (%ID/g) Gallbladder [1, 11]: 34.49 %ID/g
- Organs (%ID/g) Heart [1, 11]: 2.92 %ID/g
- Organs (%ID/g) Kidney [1, 11]: 4.04 %ID/g
- Organs (%ID/g) Liver [1, 11]: 9.05 %ID/g
- Organs (%ID/g) Brain [1, 12]: 0.49 %ID/g
- Organs (%ID/g) Gallbladder [1, 12]: 36.96 %ID/g
- Organs (%ID/g) Kidney [1, 12]: 3.71 %ID/g
- Organs (%ID/g) Liver [1, 12]: 8.34 %ID/g
- Organs (%ID/g) Brain [1, 13]: 0.41 %ID/g
- Organs (%ID/g) Gallbladder [1, 13]: 40.92 %ID/g
- Organs (%ID/g) Heart [1, 13]: 2.67 %ID/g
- Organs (%ID/g) Kidney [1, 13]: 3.30 %ID/g
- Organs (%ID/g) Liver [1, 13]: 7.55 %ID/g
- Organs (%ID/g) Brain [1, 14]: 0.42 %ID/g
- Organs (%ID/g) Gallbladder [1, 14]: 42.68 %ID/g
- Organs (%ID/g) Heart [1, 14]: 2.64 %ID/g
- Organs (%ID/g) Liver [1, 14]: 6.96 %ID/g
- Organs (%ID/g) Brain [1, 15]: 0.39 %ID/g
- Organs (%ID/g) Gallbladder [1, 15]: 44.48 %ID/g
- Organs (%ID/g) Heart [1, 15]: 2.82 %ID/g
- Organs (%ID/g) Kidney [1, 15]: 2.79 %ID/g
- Organs (%ID/g) Liver [1, 15]: 6.50 %ID/g
- Organs (%ID/g) Brain [1, 16]: 0.42 %ID/g
- Organs (%ID/g) Gallbladder [1, 16]: 43.79 %ID/g
- Organs (%ID/g) Heart [1, 16]: 2.37 %ID/g
- Organs (%ID/g) Kidney [1, 16]: 2.52 %ID/g
- Organs (%ID/g) Liver [1, 16]: 5.90 %ID/g
- Organs (%ID/g) Brain [1, 17]: 0.37 %ID/g
- Organs (%ID/g) Gallbladder [1, 17]: 45.86 %ID/g
- Organs (%ID/g) Heart [1, 17]: 2.43 %ID/g
- Organs (%ID/g) Kidney [1, 17]: 2.22 %ID/g
- Organs (%ID/g) Liver [1, 17]: 5.27 %ID/g
- Organs (%ID/g) Brain [1, 18]: 0.37 %ID/g
- Organs (%ID/g) Gallbladder [1, 18]: 46.86 %ID/g
- Organs (%ID/g) Heart [1, 18]: 2.63 %ID/g
- Organs (%ID/g) Liver [1, 18]: 4.83 %ID/g
- Organs (%ID/g) Brain [1, 19]: 0.45 %ID/g
- Organs (%ID/g) Gallbladder [1, 19]: 41.98 %ID/g
- Organs (%ID/g) Heart [1, 19]: 2.11 %ID/g
- Organs (%ID/g) Kidney [1, 19]: 1.92 %ID/g
- Organs (%ID/g) Liver [1, 19]: 4.51 %ID/g
- Organs (%ID/g) Brain [1, 20]: 0.38 %ID/g
- Organs (%ID/g) Gallbladder [1, 20]: 39.31 %ID/g
- Organs (%ID/g) Heart [1, 20]: 2.28 %ID/g
- Organs (%ID/g) Kidney [1, 20]: 1.82 %ID/g
- Organs (%ID/g) Liver [1, 20]: 4.27 %ID/g
- Organs (%ID/g) Brain [1, 21]: 0.41 %ID/g
- Organs (%ID/g) Gallbladder [1, 21]: 36.96 %ID/g
- Organs (%ID/g) Heart [1, 21]: 1.96 %ID/g
- Organs (%ID/g) Liver [1, 21]: 3.90 %ID/g
- Organs (%ID/g) Brain [1, 22]: 0.46 %ID/g
- Organs (%ID/g) Gallbladder [1, 22]: 39.06 %ID/g
- Organs (%ID/g) Heart [1, 22]: 2.18 %ID/g
- Organs (%ID/g) Kidney [1, 22]: 1.65 %ID/g
- Organs (%ID/g) Liver [1, 22]: 3.82 %ID/g
- Organs (%ID/g) Brain [1, 23]: 0.48 %ID/g
- Organs (%ID/g) Gallbladder [1, 23]: 41.97 %ID/g
- Organs (%ID/g) Heart [1, 23]: 2.64 %ID/g
- Organs (%ID/g) Kidney [1, 23]: 1.59 %ID/g
- Organs (%ID/g) Liver [1, 23]: 3.64 %ID/g
- change in vital signs or electrocardiograms [2]: no change in vital signs or electrocardiograms significantly
